{"source": "patent US11896573B2", "about": "“Pharmaceutical compositions and pharmacokinetics of a gamma-hydroxybutyric acid derivative” (priority 2020, dated 2024)", "assay": "Single ascending dose study, plasma pharmacokinetics of Compound (1) and GHB", "assay_type": "in vivo, human", "conditions": "fasted", "experimental": "The plasma concentrations of Compound (1) and GHB in plasma in healthy human subjects were measured using liquid chromatography tandem mass-spectroscopy and evaluated using PHOENIX™ WINNONLIN® version 8.1 (Pharsight Corporation, USA) and MICROSOFT® EXCEL® (Microsoft Corporation, USA).\nAll randomized subjects who received Compound (1), with available pharmacokinetic (PK) data and without relevant deviations interfering with the PK evaluations, were included. Subjects who received only placebo were excluded from the PK population. In addition, the PK population was used for the summaries and analyses of all PK data.\nA randomized, double-blind, single-center, single ascending dose study was undertaken to evaluate the safety, tolerability, and pharmacokinetics of Compound (1) and GHB in healthy subjects.\nCompound (1) was administered to randomized healthy subjects at doses from 0.1 g to 7.25 g as an aqueous solution of Compound (1) in water. The subjects fasted for at least 10 hours overnight with clear liquids allowed prior to dosing and the subjects were fasted for 4 hours after dosing.\nPlasma samples were obtained at various times following oral administration and the plasma concentrations of Compound (1) and GHB were measured.", "key": {"[1]": {"conditions": "Cohort 1 (0.10 g) single oral dose"}, "[2]": {"conditions": "Cohort 2 (0.50 g) single oral dose"}, "[3]": {"conditions": "Cohort 3 (1.50 g) single oral dose"}, "[4]": {"conditions": "Cohort 4 (3.00 g) single oral dose"}, "[5]": {"conditions": "Cohort 5 (4.50 g) single oral dose"}, "[6]": {"conditions": "Cohort 6 (6.00 g) single oral dose"}}}
{"smiles": "CC(C)[C@H](N)C(=O)OCCCC(=O)O", "note": "[Compound (1), 4-((L-valyl)oxy)butanoic acid]", "values": [{"measurement": "Compound (1) CL/F, Max", "setting": "[1]", "result": 554, "unit": "L/h"}, {"measurement": "Compound (1) CL/F, Mean", "setting": "[1]", "result": 420, "unit": "L/h"}, {"measurement": "Compound (1) CL/F, Median", "setting": "[1]", "result": 408, "unit": "L/h"}, {"measurement": "Compound (1) CL/F, Min", "setting": "[1]", "result": 316, "unit": "L/h"}, {"measurement": "Compound (1) plasma AUC0-inf, Max", "setting": "[1]", "result": 316, "unit": "ng·h/mL"}, {"measurement": "Compound (1) plasma AUC0-inf, Min", "setting": "[1]", "result": 180, "unit": "ng·h/mL"}, {"measurement": "Compound (1) plasma AUC0-tlast, Max", "setting": "[1]", "result": 315, "unit": "ng·h/mL"}, {"measurement": "Compound (1) plasma AUC0-tlast, Min", "setting": "[1]", "result": 180, "unit": "ng·h/mL"}, {"measurement": "Compound (1) plasma Cmax, Max", "setting": "[1]", "result": 669, "unit": "ng/mL"}, {"measurement": "Compound (1) plasma Cmax, Min", "setting": "[1]", "result": 265, "unit": "ng/mL"}, {"measurement": "Compound (1) plasma t1/2, Max", "setting": "[1]", "result": 0.92, "unit": "h"}, {"measurement": "Compound (1) plasma t1/2, Min", "setting": "[1]", "result": 0.48, "unit": "h"}, {"measurement": "Compound (1) CL/F, Max", "setting": "[2]", "result": 500, "unit": "L/h"}, {"measurement": "Compound (1) CL/F, Mean", "setting": "[2]", "result": 400, "unit": "L/h"}, {"measurement": "Compound (1) CL/F, Median", "setting": "[2]", "result": 396, "unit": "L/h"}, {"measurement": "Compound (1) CL/F, Min", "setting": "[2]", "result": 309, "unit": "L/h"}, {"measurement": "Compound (1) plasma AUC0-inf, Max", "setting": "[2]", "result": 1620, "unit": "ng·h/mL"}, {"measurement": "Compound (1) plasma AUC0-inf, Min", "setting": "[2]", "result": 1000, "unit": "ng·h/mL"}, {"measurement": "Compound (1) plasma AUC0-tlast, Max", "setting": "[2]", "result": 1610, "unit": "ng·h/mL"}, {"measurement": "Compound (1) plasma AUC0-tlast, Min", "setting": "[2]", "result": 998, "unit": "ng·h/mL"}, {"measurement": "Compound (1) plasma Cmax, Max", "setting": "[2]", "result": 2470, "unit": "ng/mL"}, {"measurement": "Compound (1) plasma Cmax, Min", "setting": "[2]", "result": 1160, "unit": "ng/mL"}, {"measurement": "Compound (1) plasma Tmax, Max", "setting": "[2]", "result": 1.50, "unit": "h"}, {"measurement": "Compound (1) plasma t1/2, Max", "setting": "[2]", "result": 1.33, "unit": "h"}, {"measurement": "Compound (1) plasma t1/2, Min", "setting": "[2]", "result": 0.71, "unit": "h"}, {"measurement": "Compound (1) CL/F, Max", "setting": "[3]", "result": 959, "unit": "L/h"}, {"measurement": "Compound (1) CL/F, Mean", "setting": "[3]", "result": 673, "unit": "L/h"}, {"measurement": "Compound (1) CL/F, Median", "setting": "[3]", "result": 553, "unit": "L/h"}, {"measurement": "Compound (1) CL/F, Min", "setting": "[3]", "result": 468, "unit": "L/h"}, {"measurement": "Compound (1) plasma AUC0-inf, Max", "setting": "[3]", "result": 3210, "unit": "ng·h/mL"}, {"measurement": "Compound (1) plasma AUC0-inf, Min", "setting": "[3]", "result": 1500, "unit": "ng·h/mL"}, {"measurement": "Compound (1) plasma AUC0-tlast, Max", "setting": "[3]", "result": 4040, "unit": "ng·h/mL"}, {"measurement": "Compound (1) plasma AUC0-tlast, Min", "setting": "[3]", "result": 1500, "unit": "ng·h/mL"}, {"measurement": "Compound (1) plasma Cmax, Max", "setting": "[3]", "result": 5530, "unit": "ng/mL"}, {"measurement": "Compound (1) plasma Cmax, Min", "setting": "[3]", "result": 2100, "unit": "ng/mL"}, {"measurement": "Compound (1) plasma Tmax, Max", "setting": "[3]", "result": 1.50, "unit": "h"}, {"measurement": "Compound (1) plasma t1/2, Max", "setting": "[3]", "result": 1.11, "unit": "h"}, {"measurement": "Compound (1) plasma t1/2, Min", "setting": "[3]", "result": 0.97, "unit": "h"}, {"measurement": "Compound (1) CL/F, Max", "setting": "[4]", "result": 545, "unit": "L/h"}, {"measurement": "Compound (1) CL/F, Mean", "setting": "[4]", "result": 413, "unit": "L/h"}, {"measurement": "Compound (1) CL/F, Median", "setting": "[4]", "result": 408, "unit": "L/h"}, {"measurement": "Compound (1) CL/F, Min", "setting": "[4]", "result": 318, "unit": "L/h"}, {"measurement": "Compound (1) plasma AUC0-inf, Max", "setting": "[4]", "result": 9430, "unit": "ng·h/mL"}, {"measurement": "Compound (1) plasma AUC0-inf, Min", "setting": "[4]", "result": 5500, "unit": "ng·h/mL"}, {"measurement": "Compound (1) plasma AUC0-tlast, Max", "setting": "[4]", "result": 9430, "unit": "ng·h/mL"}, {"measurement": "Compound (1) plasma AUC0-tlast, Min", "setting": "[4]", "result": 5500, "unit": "ng·h/mL"}, {"measurement": "Compound (1) plasma Cmax, Max", "setting": "[4]", "result": 15200, "unit": "ng/mL"}, {"measurement": "Compound (1) plasma Cmax, Min", "setting": "[4]", "result": 7440, "unit": "ng/mL"}, {"measurement": "Compound (1) plasma t1/2, Max", "setting": "[4]", "result": 1.54, "unit": "h"}, {"measurement": "Compound (1) plasma t1/2, Min", "setting": "[4]", "result": 0.78, "unit": "h"}, {"measurement": "Compound (1) CL/F, Max", "setting": "[5]", "result": 586, "unit": "L/h"}, {"measurement": "Compound (1) CL/F, Mean", "setting": "[5]", "result": 416, "unit": "L/h"}, {"measurement": "Compound (1) CL/F, Median", "setting": "[5]", "result": 389, "unit": "L/h"}, {"measurement": "Compound (1) CL/F, Min", "setting": "[5]", "result": 353, "unit": "L/h"}, {"measurement": "Compound (1) plasma AUC0-inf, Max", "setting": "[5]", "result": 12700, "unit": "ng·h/mL"}, {"measurement": "Compound (1) plasma AUC0-inf, Min", "setting": "[5]", "result": 7670, "unit": "ng·h/mL"}, {"measurement": "Compound (1) plasma AUC0-tlast, Max", "setting": "[5]", "result": 12700, "unit": "ng·h/mL"}, {"measurement": "Compound (1) plasma AUC0-tlast, Min", "setting": "[5]", "result": 7660, "unit": "ng·h/mL"}, {"measurement": "Compound (1) plasma Cmax, Max", "setting": "[5]", "result": 16700, "unit": "ng/mL"}, {"measurement": "Compound (1) plasma Cmax, Min", "setting": "[5]", "result": 6790, "unit": "ng/mL"}, {"measurement": "Compound (1) plasma t1/2, Max", "setting": "[5]", "result": 1.50, "unit": "h"}, {"measurement": "Compound (1) plasma t1/2, Min", "setting": "[5]", "result": 0.83, "unit": "h"}, {"measurement": "Compound (1) CL/F, Max", "setting": "[6]", "result": 423, "unit": "L/h"}, {"measurement": "Compound (1) CL/F, Mean", "setting": "[6]", "result": 340, "unit": "L/h"}, {"measurement": "Compound (1) CL/F, Median", "setting": "[6]", "result": 334, "unit": "L/h"}, {"measurement": "Compound (1) CL/F, Min", "setting": "[6]", "result": 232, "unit": "L/h"}, {"measurement": "Compound (1) plasma AUC0-inf, Max", "setting": "[6]", "result": 25800, "unit": "ng·h/mL"}, {"measurement": "Compound (1) plasma AUC0-inf, Min", "setting": "[6]", "result": 14200, "unit": "ng·h/mL"}, {"measurement": "Compound (1) plasma AUC0-tlast, Max", "setting": "[6]", "result": 25800, "unit": "ng·h/mL"}, {"measurement": "Compound (1) plasma AUC0-tlast, Min", "setting": "[6]", "result": 14200, "unit": "ng·h/mL"}, {"measurement": "Compound (1) plasma Cmax, Max", "setting": "[6]", "result": 22900, "unit": "ng/mL"}, {"measurement": "Compound (1) plasma Cmax, Min", "setting": "[6]", "result": 13200, "unit": "ng/mL"}, {"measurement": "Compound (1) plasma t1/2, Max", "setting": "[6]", "result": 1.64, "unit": "h"}, {"measurement": "Compound (1) plasma t1/2, Min", "setting": "[6]", "result": 0.79, "unit": "h"}]}
